From ChEMBL document CHEMBL4177532, “Antibacterial Nerol Cinnamates from the Australian Plant Eremophila longifolia” (J Nat Prod, 2017) come the findings set out here.

Data set [1] is described as follows: Cytotoxicity against HEK293 cells assessed as reduction in cell viability incubated for 24 hrs by resazurin based assay. The following applies: human.
Another data set deals with HepG2. Description: Cytotoxicity against human HepG2 cells assessed as reduction in cell viability incubated for 24 hrs by resazurin based assay. In kind it is functional. The following applies: HepG2, 24 h.
The next data set deals with Streptococcus pneumoniae. Description: Antimicrobial activity against multidrug resistant Streptococcus pneumoniae ATCC 700677 by microdilution plate based method. In kind it is functional.
The test system of data set [2] is Staphylococcus aureus. Description: Antimicrobial activity against glycopeptide intermediate resistant Staphylococcus aureus NARSA NRS 17 by microdilution plate based method. In kind it is functional.
Data set [3] deals with Staphylococcus aureus. Description: microbe, parasite or virus in culture. The note with it: ATCC 43300. In kind it is functional.
For data set [4], the system named is Staphylococcus aureus. Description: Antimicrobial activity against vancomycin-resistant Staphylococcus aureus NARSA VRS 1 by microdilution plate based method. In kind it is functional.
For a further data set, the system named is Enterococcus faecium. The experiment in a line: Antimicrobial activity against vancomycin-resistant and VanA expressing Enterococcus faecium ATCC 51559 by microdilution plate based method. In kind it is functional.
Data set [5] is described as follows: Drug metabolism assessed as compound auto-oxidation. In kind it is physicochemical.
Another data set deals with Candida albicans. The experiment in a line: Antimicrobial activity against Candida albicans ATCC 90028 by microdilution plate based method. In kind it is functional.
A further data set relates to Cryptococcus neoformans. The experiment in a line: Antimicrobial activity against Cryptococcus neoformans ATCC 208821 by microdilution plate based method. In kind it is functional.
The subject of another data set is Acinetobacter baumannii. Description: Antimicrobial activity against Acinetobacter baumannii ATCC 19606 by microdilution plate based method. In kind it is functional. The note with it: ATCC 19606 = CIP 70.34 = JCM 6841.
For data set [6], the system named is Escherichia coli. Description: Antimicrobial activity against Escherichia coli ATCC 25922 by microdilution plate based method. In kind it is functional.
In another data set the test system is MRC5. Description: Cytotoxicity against human MRC5 cells. In kind it is cell-based.
Data set [7] relates to Trypanosoma brucei brucei. Description: Antitrypanosomal activity against Trypanosoma brucei brucei GUTat 3.1 incubated for 72 hrs by alamar blue dye based assay. In kind it is functional, organism-based. The note with it: GUTat 3.1, 72 h.
The subject of data set [8] is Escherichia coli. Description: Antimicrobial activity against Escherichia coli. In kind it is functional.
For data set [9], the system named is Staphylococcus aureus. Description: Antimicrobial activity against Staphylococcus aureus. In kind it is functional.

≈ marks a conversion by molar mass, not a printed value. Where only a bound is given, the exact number is not on record here.

Consider `CC/C(=C(\c1ccccc1)c1ccc(OCCN(C)C)cc1)c1ccccc1` [TAMOXIFEN], for which, in data set [1], the CC50 at 24 h came to […]. Also, the CC50 in the data set on HepG2 is […].
Consider `CCCCCCCCCC(=O)N[C@@H](Cc1c[nH]c2ccccc12)C(=O)N[C@@H](CC(N)=O)C(=O)N[C@@H](CC(=O)O)C(=O)N[C@@H]1C(=O)NCC(=O)N[C@@H](CCCN)C(=O)N[C@@H](CC(=O)O)C(=O)N[C@H](C)C(=O)N[C@@H](CC(=O)O)C(=O)NCC(=O)N[C@H](CO)C(=O)N[C@@H]([C@H](C)CC(=O)O)C(=O)N[C@@H](CC(=O)c2ccccc2N)C(=O)O[C@@H]1C` [DAPTOMYCIN], for which the MIC with Streptococcus pneumoniae was 8 µg/mL (≈ 4.94 µM); with Staphylococcus aureus [2], 16 to 32 µg/mL (≈ 9.87 to 19.7 µM); with Staphylococcus aureus [3] it was 4 µg/mL (≈ 2.47 µM); in the data set on Staphylococcus aureus [4], 8 µg/mL (≈ 4.94 µM); against Enterococcus faecium, 32 µg/mL (≈ 19.7 µM).
As to `COc1cc(/C=C/C(=O)OC/C=C(/C)CCC=C(C)C)ccc1O`, the Drug metabolism result in data set [5] is recorded as “Metabolite_Detected”. The MIC is 8 to 16 µg/mL (≈ 24.2 to 48.4 µM) in the data set on Streptococcus pneumoniae; 16 µg/mL (≈ 48.4 µM) with Staphylococcus aureus [2]; greater than 64 µg/mL against Candida albicans; 32 to 64 µg/mL (≈ 96.8 to 194 µM) against Cryptococcus neoformans; 16 µg/mL (≈ 48.4 µM) in the data set with Staphylococcus aureus [3]; greater than 64 µg/mL against Acinetobacter baumannii. Further, the MIC is greater than 64 µg/mL against Escherichia coli [6], 16 to 32 µg/mL (≈ 48.4 to 96.8 µM) with Staphylococcus aureus [4] and 8 µg/mL (≈ 24.2 µM) in the data set on Enterococcus faecium. In addition, the CC50 at 24 h in data set [1] was found to be 273 µM. Also, the 50% cytotoxic concentration (CC50) in the data set with HepG2 turned out to be 300 µM.
Consider `OC(Cn1cncn1)(Cn1cncn1)c1ccc(F)cc1F` [FLUCONAZOLE], for which the MIC against Candida albicans was 0.3 to 0.5 µg/mL (≈ 0.98 to 1.63 µM); against Cryptococcus neoformans, 8 µg/mL (≈ 26.1 µM).
Take `CN[C@H](CC(C)C)C(=O)N[C@H]1C(=O)N[C@@H](CC(N)=O)C(=O)N[C@H]2C(=O)N[C@H]3C(=O)N[C@H](C(=O)N[C@H](C(=O)O)c4cc(O)cc(O)c4-c4cc3ccc4O)[C@H](O)c3ccc(c(Cl)c3)Oc3cc2cc(c3O[C@@H]2O[C@H](CO)[C@@H](O)[C@H](O)[C@H]2O[C@H]2C[C@](C)(N)[C@H](O)[C@H](C)O2)Oc2ccc(cc2Cl)[C@H]1O.Cl` [VANCOMYCIN HYDROCHLORIDE]: the MIC was 2 µg/mL with Streptococcus pneumoniae, greater than 32 µg/mL in the data set with Staphylococcus aureus [2], greater than 32 µg/mL with Staphylococcus aureus [4] and greater than 32 µg/mL against Enterococcus faecium.
Turning to `CC[C@H](C)CCCCC(=O)N[C@@H](CCN)C(=O)N[C@H](C(=O)N[C@@H](CCN)C(=O)N[C@H]1CCNC(=O)[C@H]([C@@H](C)O)NC(=O)[C@H](CCN)NC(=O)[C@H](CCN)NC(=O)[C@H](CC(C)C)NC(=O)[C@@H](Cc2ccccc2)NC(=O)[C@H](CCN)NC1=O)[C@@H](C)O.O=S(=O)(O)O.O=S(=O)(O)O`, the MIC against Acinetobacter baumannii and in the data set on Escherichia coli [6] was 0.3 µg/mL in each case.
For `CC(C)=CCC/C(C)=C\COC(=O)/C=C/c1ccc(O)cc1`, the Drug metabolism result in data set [5] is recorded as “Metabolite_Detected”. Moreover, the MIC is 64 µg/mL (≈ 213 µM) in the data set on Streptococcus pneumoniae; greater than 64 µg/mL against Staphylococcus aureus [2]; greater than 64 µg/mL in the data set on Candida albicans; 32 to 64 µg/mL (≈ 107 to 213 µM) with Cryptococcus neoformans; greater than 64 µg/mL with Staphylococcus aureus [3]; greater than 64 µg/mL with Acinetobacter baumannii. For the same compound, the figures for the MIC with Escherichia coli [6], in the data set with Staphylococcus aureus [4] and against Enterococcus faecium were greater than 64 µg/mL, greater than 64 µg/mL and 8 µg/mL (≈ 26.6 µM), respectively. In data set [1], the CC50 at 24 h worked out at 273 µM. For the same compound, the CC50 in the data set on HepG2 came out at 157 µM.
As to `CC(C)=CCC/C(C)=C\CC/C(C)=C\COC(=O)/C=C/c1ccc(O)c(O)c1` [FARNESYL CAFFEATE], the IC50 in the data set with MRC5 was determined as 13.3 µg/mL (≈ 34.6 µM); in data set [7] it was 0.23 µg/mL (≈ 0.598 µM).
For `CC(C)=CCC/C(C)=C/COC(=O)/C=C/c1ccccc1`, the MIC against Escherichia coli [8] and against Staphylococcus aureus [9] was 5000 µg/mL (≈ 17600 µM) each time.
